From patent publication EP4711367A1, “PYRAZOLOPYRAZINE COMPOUND AND METHOD FOR PREPARING CRYSTAL FORM THEREOF” (CMS Research & Development Pte. Ltd., priority 2023, dated 2024)

Columns and labels:
[1] = molecular target: T1, JAK1(h) (Homo sapiens, UniProt P23458); test: In vitro activity test of JAK1 kinase ([γ-33P]-ATP filter assay, Eurofins); type: biochemical
T1 construct: purchased Eurofins (UK)
Experimental: (§1) Recombinant human JAK1, JAK2, JAK3, and Tyk2 proteases, along with major instruments and reagents, were provided by Eurofins in the UK.
(§2) JAK2, JAK3, and TYK2 were diluted with: 20 mM 3-(N-morpholino)propanesulfonic acid (MOPS), 1 mM EDTA, 0.01% Brij-35.5% glycerol, 0.1% β-mercaptoethanol, 1 mg/mL BSA; JAK1 was diluted with: 20 mM TRIS, 0.2 mM EDTA, 0.1% β-mercaptoethanol, 0.01% Brij-35.5% glycerol. The compound of formula (I) was prepared as a 100% DMSO solution and diluted to 50 times the final assay concentration. The test compound was subjected to a 3-fold serial dilution, with final concentrations ranging from 10 µM to 0.001 µM across 9 concentrations, and the DMSO content in the detection reaction was 2%. The working stock solution of this compound was added as the first component of the reaction to the assay wells, followed by the addition of the remaining components according to the protocol detailed below.
JAK1(h) was incubated with 20 mM Tris/HCl pH 7.5, 0.2 mM EDTA, 500 µM MGEEPLYWSFPAKKK, 10 mM magnesium acetate, and [γ-^33P]-ATP (activity and concentration adjusted as needed). The reaction was initiated by adding the Mg/ATP mixture and incubated at room temperature for 40 minutes, then terminated by adding 0.5% phosphoric acid. […]
(§3) The IC50 results were analyzed using XLFIT5 (205 formula) from IDBS, as detailed in Table 12. […]

[2] = molecular target: T2, JAK2(h) (Homo sapiens, UniProt O60674); test: In vitro activity test of JAK2 kinase ([γ-33P]-ATP filter assay, Eurofins); type: biochemical
T2 construct: purchased Eurofins (UK)
Experimental: as §1, §2
JAK2(h) was incubated with 8 mM MOPS pH 7.0, 0.2 mM EDTA, 100 µM […], 10 mM magnesium acetate, and [γ-^33P]-ATP (prepared to the required activity and concentration). The reaction was initiated by adding the Mg/ATP mixture and incubated at room temperature for 40 minutes, then terminated by adding 0.5% phosphoric acid. […]
as §3

[3] = molecular target: T3, TYK2(h) (Homo sapiens, UniProt P29597); test: In vitro activity test of TYK2 kinase ([γ-33P]-ATP filter assay, Eurofins); type: biochemical
T3 construct: purchased Eurofins (UK)
Experimental: as §2, with “Recombinant human JAK1, JAK2, JAK3, and Tyk2 proteases, along with major instruments and reagents, were provided by Eurofins in the UK. JAK2,” for “JAK2,”, “below. TYK2(h) was incubated with 8 mM MOPS pH 7.0, 0.2 mM EDTA, 250 µM GGMEDIYFEFMGGKKK, 10 mM magnesium acetate, and [γ-^33P]-ATP (activity and concentration adjusted as needed). The reaction was initiated by adding the Mg/ATP mixture and incubated at room temperature for 40 minutes, then terminated by adding 0.5% phosphoric acid. […] The IC50 results were analyzed using XLFIT5 (205 formula) from IDBS, as detailed in Table 12. […]” for “below.”

[4] = Pharmacokinetic (PK) test in mice; type: in vivo, male mice (balb/c)
Experimental: The clarified solutions obtained by dissolving the test compound were administered to male mice (balb/c) via tail vein injection and oral gavage, respectively. After administration of the test compound, blood was collected from the mandibular vein at 0.083, 0.25, 0.5, 1, 2, 4, 8, and 24 hours for the intravenous injection group (1 mg/kg) and at 0.25, 0.5, 1, 2, 4, 6, 8, and 24 hours for the oral gavage group (3 mg/kg), followed by centrifugation to obtain plasma. Plasma concentrations were determined by the LC-MS/MS method, and relevant pharmacokinetic parameters were calculated using WinNonlin™ Version 6.3 pharmacokinetic software with non-compartmental model linear-log trapezoidal method. PK test results of the compound of formula (I) in mice

[5] = test system: paw swelling; test: Paw swelling and scores in mice after oral administration (only summarised, no method given); type: in vivo

T3 sequence (P29597 whole entry): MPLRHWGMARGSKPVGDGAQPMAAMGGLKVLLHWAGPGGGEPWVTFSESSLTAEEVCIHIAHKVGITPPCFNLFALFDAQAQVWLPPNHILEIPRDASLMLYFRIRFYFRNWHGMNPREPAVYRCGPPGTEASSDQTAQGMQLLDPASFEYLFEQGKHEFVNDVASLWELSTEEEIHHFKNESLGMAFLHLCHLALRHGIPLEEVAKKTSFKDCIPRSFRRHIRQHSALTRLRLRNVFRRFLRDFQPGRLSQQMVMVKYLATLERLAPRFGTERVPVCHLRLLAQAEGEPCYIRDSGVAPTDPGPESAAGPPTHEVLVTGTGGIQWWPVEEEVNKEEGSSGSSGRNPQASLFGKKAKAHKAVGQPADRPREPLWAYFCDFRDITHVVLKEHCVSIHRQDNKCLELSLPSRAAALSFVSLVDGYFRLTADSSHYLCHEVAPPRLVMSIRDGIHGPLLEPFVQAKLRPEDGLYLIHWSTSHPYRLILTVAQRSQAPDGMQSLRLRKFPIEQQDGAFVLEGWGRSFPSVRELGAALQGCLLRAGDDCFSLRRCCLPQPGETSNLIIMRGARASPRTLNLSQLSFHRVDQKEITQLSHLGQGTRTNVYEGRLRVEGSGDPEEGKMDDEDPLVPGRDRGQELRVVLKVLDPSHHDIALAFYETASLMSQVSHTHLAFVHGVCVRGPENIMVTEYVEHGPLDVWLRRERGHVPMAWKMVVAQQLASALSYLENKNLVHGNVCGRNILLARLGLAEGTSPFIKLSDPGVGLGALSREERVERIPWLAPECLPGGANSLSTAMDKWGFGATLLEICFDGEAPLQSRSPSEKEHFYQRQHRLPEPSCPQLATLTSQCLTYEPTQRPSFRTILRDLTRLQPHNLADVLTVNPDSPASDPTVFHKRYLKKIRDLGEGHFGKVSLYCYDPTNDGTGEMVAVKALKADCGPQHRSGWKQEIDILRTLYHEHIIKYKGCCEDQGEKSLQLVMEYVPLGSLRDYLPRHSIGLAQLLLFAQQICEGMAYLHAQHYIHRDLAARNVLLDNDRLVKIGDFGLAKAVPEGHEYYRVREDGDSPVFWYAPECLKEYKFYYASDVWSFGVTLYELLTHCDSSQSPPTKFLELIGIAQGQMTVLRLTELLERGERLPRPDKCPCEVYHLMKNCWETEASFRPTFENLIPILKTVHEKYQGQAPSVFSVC
T1 sequence (P23458 whole entry): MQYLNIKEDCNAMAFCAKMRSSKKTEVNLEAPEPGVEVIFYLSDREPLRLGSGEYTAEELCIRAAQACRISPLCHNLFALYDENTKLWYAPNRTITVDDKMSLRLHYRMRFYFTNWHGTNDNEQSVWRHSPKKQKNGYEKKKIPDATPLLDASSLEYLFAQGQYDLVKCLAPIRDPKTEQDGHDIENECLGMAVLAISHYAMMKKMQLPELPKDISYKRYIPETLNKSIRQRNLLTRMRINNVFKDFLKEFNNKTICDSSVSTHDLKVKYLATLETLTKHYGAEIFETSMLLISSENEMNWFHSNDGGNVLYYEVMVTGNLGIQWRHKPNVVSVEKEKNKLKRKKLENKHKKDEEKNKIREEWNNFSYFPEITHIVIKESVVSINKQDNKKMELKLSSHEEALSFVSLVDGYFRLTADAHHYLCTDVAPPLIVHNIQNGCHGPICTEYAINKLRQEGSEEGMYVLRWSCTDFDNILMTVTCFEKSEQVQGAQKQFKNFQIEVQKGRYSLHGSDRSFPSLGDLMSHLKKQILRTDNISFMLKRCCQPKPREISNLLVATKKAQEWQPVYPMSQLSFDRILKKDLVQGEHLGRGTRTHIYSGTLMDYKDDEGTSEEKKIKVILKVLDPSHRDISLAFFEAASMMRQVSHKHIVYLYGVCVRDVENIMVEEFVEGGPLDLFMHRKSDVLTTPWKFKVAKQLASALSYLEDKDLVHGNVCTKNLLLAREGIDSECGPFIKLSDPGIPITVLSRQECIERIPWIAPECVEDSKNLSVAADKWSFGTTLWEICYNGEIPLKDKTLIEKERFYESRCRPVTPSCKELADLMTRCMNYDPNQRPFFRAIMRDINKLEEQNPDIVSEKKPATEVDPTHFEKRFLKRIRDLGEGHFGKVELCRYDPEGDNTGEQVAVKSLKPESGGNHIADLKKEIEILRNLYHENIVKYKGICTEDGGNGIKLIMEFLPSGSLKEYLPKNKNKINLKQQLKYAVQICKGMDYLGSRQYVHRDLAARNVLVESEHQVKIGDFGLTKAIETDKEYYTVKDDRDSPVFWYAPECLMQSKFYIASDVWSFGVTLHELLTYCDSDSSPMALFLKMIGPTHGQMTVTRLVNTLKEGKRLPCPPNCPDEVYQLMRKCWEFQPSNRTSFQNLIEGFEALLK
T2 sequence (O60674 whole entry): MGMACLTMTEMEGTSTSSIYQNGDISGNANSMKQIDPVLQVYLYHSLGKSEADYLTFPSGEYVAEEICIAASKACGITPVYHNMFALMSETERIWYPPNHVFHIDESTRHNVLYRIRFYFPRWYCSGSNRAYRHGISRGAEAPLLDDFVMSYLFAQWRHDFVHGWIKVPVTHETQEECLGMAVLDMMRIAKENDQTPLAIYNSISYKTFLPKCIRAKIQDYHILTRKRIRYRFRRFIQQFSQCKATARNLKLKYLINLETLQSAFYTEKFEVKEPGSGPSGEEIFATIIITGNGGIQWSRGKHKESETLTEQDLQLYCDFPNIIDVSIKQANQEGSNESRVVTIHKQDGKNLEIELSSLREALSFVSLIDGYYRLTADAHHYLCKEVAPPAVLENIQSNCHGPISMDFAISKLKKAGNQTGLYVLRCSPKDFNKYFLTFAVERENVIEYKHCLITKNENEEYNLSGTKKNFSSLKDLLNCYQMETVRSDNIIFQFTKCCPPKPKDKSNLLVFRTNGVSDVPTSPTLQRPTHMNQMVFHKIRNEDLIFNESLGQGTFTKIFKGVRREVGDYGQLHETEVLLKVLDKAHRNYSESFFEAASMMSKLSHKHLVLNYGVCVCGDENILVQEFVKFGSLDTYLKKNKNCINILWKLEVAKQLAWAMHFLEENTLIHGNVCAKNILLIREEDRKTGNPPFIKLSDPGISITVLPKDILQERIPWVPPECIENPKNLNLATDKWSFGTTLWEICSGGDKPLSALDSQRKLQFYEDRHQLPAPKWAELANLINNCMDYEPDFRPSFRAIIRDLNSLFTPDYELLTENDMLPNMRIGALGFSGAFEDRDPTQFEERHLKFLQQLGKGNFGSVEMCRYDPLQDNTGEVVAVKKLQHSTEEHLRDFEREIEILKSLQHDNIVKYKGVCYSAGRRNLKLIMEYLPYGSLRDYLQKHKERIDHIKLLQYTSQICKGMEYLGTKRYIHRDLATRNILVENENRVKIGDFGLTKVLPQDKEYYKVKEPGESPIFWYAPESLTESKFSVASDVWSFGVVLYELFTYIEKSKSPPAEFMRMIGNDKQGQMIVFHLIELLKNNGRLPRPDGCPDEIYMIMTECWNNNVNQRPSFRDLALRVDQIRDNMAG

Cn1cc(-c2cn3nccc3c(-c3cnn([C@]4(CC#N)CC5(C[C@H](C#N)C5)C4)c3)n2)cn1 (stereo partly drawn) [Compound of formula (I)]
IC50 [1]: 10 nM | IC50 [2]: 4 nM | IC50 [3]: 0.9 nM | selective inhibition against TYK2 and/or JAK1 and/or JAK2 ([3]; in vitro activity tests for the four kinase subtypes JAK1, JAK2, JAK3, and TYK2): good selective inhibition | exposure (in words) [4]: high exposure | oral bioavailability (in words) [4]: good oral bioavailability | degree of paw swelling (in words) [5]: significantly improve | effect on animal body weight (in words) [5]: no significant effect | scores and relative scores (in words) [5]: ameliorate
